PMC8113213, “Physiologically based kinetic modelling based prediction of in vivo rat and human acetylcholinesterase (AChE) inhibition upon exposure to diazinon” (Archives of Toxicology, 2021)

Key:
rat RBC AChE = biological target: T1, rat RBC AChE (Rattus norvegicus, UniProt P37136); experiment: In vitro AChE inhibition assay (Ellman) with extracted rat RBC AChE; format: biochemical
T1 construct: the membrane fraction (containing AChE) was sedimented by centrifugation at 20,000g for 40 min; tissue BioIVT; host or cells: rat red blood cell membranes (from whole blood)
T1 sequence (P37136 other isoform, or with tags, fused parts or gaps): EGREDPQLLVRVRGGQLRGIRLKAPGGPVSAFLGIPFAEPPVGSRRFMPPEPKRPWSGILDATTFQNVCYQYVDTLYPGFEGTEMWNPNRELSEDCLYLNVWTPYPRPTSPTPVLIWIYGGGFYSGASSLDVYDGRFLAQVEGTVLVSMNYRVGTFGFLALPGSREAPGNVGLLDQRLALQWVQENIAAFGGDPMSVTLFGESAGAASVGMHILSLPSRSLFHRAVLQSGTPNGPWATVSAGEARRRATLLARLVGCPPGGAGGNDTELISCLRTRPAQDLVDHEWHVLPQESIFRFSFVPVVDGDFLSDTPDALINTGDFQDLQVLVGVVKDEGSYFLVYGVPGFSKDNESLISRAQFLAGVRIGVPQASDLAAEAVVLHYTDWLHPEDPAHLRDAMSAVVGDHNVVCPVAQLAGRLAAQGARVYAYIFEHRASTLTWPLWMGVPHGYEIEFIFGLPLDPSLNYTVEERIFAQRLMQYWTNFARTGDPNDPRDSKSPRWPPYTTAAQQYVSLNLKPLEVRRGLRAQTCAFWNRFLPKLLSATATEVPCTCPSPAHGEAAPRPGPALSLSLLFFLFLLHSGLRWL
Procedure: However, since recombinant rat AChE was not commercially available, extracted rat RBC AChE was used. […] The concentration of DTNB was calculated based on the concentration ratio (ATC/DTNB) of 2 (Stern et al. [2014]). […] To initiate the inhibition reaction, 1 µl rhAChE or rat AChE (final concentration 0.6 mU/ml) was added to the incubation. The total incubation volume was 50 µl. After 15 min incubation at 37℃, 150 µl reaction reagents (mixture of ATC at a final concentration of 150 µM and DTNB at a final concentration of 75 µM) were added into each well. The final total volume of each well was 200 µl. Subsequently, the 96-well plate was measured continuously for 10 min at absorbance 412 nm at 37℃ to quantify the remaining AChE activity.
The rhAChE and rat AChE activity were expressed as the remaining AChE activity relative to solvent control (100% activity) and positive control (0% activity) based on Eq. (2):2 AChEactivity\%=A412t10-t0testcompound-A412t10-t0positivecontrol/A412t10-t0solventcontrol-A412t10-t0positivecontrol×100\% , where the A412(t10 − t0)test compound is the change in the absorbance at A412 nm between 0 and 10 min for the test compound, the A412(t10 − t0)positive control is the change in the absorbance at A412 nm between 0 and 10 min for the CPO sample, and the A412(t10 − t0)solvent control is the change in the absorbance at A412nm between 0 and 10 min for the 0.2% ethanol sample.

[1] = human, cited from earlier work
[2] = human; ref Poklis et al. 1980; cited from earlier work

SMILES: CCOP(=S)(OCC)Oc1cc(C)nc(C(C)C)n1 [DZN, O,O-diethyl O-2-isopropyl-6-methylpyrimidin-4-yl phosphorothioate]
- IC50 (rat RBC AChE; rat RBC AChE, 15 min incubation at 37℃): 14.7 µM
- toxic equivalency factor (TEF) (rat RBC AChE; rat, IC50 DZO/IC50 DZN, TEF of DZO set at 1.0): 0.00351
- fractional absorption (fa) ([1]; oral, ref Garfitt et al. 2002): 0.66
- first-order rate constant for absorption from the intestine into the liver (KaI) ([1]; ref Poet et al. 2004): 0.59 h⁻¹
- first-order rate constant for absorption from the stomach into the liver (KaS) ([1]; ref Poet et al. 2004): 0.32 h⁻¹
- first-order rate constant for transfer from the stomach into the intestine (KsI) ([1]; ref Poet et al. 2004): 0.48 h⁻¹
- toxic dose level reported [2]: 293 mg/kg bw
